# Literature values, collected in patent EP0622459A1, “Fused proteins for preparing vasoactive intestinal polypeptide analogs, method of preparing same and recombinant plasmids and transformant microorganisms” (SANWA KAGAKU KENKYUSHO CO., LTD., priority 1993, dated 1994).
# Ends that are not written are not given here.
# Conditions: prior-art analogs, result in words
substance,measurement,value
"Leu¹⁷-VIP-OH: genetically engineered VIP analog of the prior art (JP-A-1-296996 and JP-A-3-280893) (HSDAVFTDNYTRLRKQLAVKKYLNSILN-OH; UniProt P01282 125-152, looked up, variant M17L)",biological activity compared with VIP,only comparable to naturally occurring VIP
